Measured values from ChEMBL document CHEMBL1201862, “PubChem BioAssay data set” (2004).
The source made the active and inactive calls.

Legend:
[1] = Luminescence Cell-Based Dose Retest to Confirm Inhibitors of Cancer Stem Cells. [Related pubchem assays (depositor defined):AID2717, AID2721]; assay type: functional; conditions: Homo sapiens
[2] = target: T1, Histone-lysine N-methyltransferase NSD2 (Homo sapiens, UniProt O96028); assay type: biochemical
T1 sequence (O96028 whole entry): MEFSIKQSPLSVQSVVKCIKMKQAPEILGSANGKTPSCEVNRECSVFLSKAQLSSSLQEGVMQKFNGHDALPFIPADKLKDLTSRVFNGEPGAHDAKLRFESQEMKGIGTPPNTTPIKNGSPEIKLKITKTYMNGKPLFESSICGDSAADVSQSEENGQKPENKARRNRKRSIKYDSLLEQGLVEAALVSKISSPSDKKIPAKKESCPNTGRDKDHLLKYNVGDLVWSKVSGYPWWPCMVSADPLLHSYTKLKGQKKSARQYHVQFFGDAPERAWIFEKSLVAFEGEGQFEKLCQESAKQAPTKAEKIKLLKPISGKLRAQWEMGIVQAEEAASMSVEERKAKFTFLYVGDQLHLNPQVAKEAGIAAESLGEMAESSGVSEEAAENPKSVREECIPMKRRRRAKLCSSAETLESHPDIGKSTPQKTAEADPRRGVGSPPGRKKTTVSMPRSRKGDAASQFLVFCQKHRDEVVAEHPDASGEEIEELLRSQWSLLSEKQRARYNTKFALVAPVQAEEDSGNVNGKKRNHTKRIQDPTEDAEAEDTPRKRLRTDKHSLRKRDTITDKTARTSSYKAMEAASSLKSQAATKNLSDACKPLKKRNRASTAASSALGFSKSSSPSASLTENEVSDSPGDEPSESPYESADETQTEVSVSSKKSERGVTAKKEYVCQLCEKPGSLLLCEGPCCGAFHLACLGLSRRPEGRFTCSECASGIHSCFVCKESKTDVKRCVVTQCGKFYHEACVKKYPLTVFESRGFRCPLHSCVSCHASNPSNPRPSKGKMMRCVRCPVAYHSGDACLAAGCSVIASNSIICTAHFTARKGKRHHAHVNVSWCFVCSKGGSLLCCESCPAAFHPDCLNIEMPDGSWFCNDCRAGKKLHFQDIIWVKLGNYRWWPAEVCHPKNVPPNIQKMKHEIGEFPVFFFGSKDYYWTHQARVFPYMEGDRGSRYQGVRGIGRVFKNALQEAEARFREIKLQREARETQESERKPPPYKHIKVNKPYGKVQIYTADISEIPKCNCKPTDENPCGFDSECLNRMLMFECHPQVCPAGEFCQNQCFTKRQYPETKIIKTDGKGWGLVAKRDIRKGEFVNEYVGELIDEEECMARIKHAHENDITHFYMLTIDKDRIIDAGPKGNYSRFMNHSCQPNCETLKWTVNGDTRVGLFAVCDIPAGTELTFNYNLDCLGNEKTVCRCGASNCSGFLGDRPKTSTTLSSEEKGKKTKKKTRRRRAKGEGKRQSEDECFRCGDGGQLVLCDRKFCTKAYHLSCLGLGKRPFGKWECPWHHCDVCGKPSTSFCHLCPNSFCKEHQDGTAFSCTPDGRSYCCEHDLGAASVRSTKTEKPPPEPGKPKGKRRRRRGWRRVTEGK

[3] = test system: HEK293; experiment: cells; conditions: Homo sapiens
[4] = test system: HEK293; experiment: cells; conditions: Homo sapiens; remark: listed apart in the source
[5] = target: Dual specificity tyrosine-phosphorylation-regulated kinase 1A (Rattus norvegicus, UniProt Q63470); assay type: biochemical, Homo sapiens
[6] = target: T2, Sentrin-specific protease 8 (Homo sapiens, UniProt Q96LD8); assay type: functional
T2 sequence (Q96LD8 whole entry): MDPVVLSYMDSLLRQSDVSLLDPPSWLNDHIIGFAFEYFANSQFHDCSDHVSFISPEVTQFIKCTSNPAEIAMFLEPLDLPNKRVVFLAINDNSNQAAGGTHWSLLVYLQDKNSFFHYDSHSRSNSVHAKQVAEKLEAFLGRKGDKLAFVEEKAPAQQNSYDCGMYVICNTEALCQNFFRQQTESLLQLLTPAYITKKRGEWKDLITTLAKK

[7] = target: T2, Sentrin-specific protease 8; assay type: functional; remark: listed apart in the source
[8] = viability loss in HeLa cells – cytotoxicity control for MgcRacGAP inhibitor project, dose response (AID 624300); assay type: functional
[9] = Fluorescence-based cell-based high throughput dose response assay for inhibitors of the interaction of nucleotide-binding oligomerization domain containing 2 (NOD2) and the receptor-interacting serine-threonine kinase 2 (RIPK2).; assay type: functional; conditions: Homo sapiens
[10] = viability of uninfected HEp-2 cells – cell-based, HTS, cytotoxicity control for RSV inhibitor project, dose response (AID 2410); assay type: functional; conditions: human respiratory syncytial virus
[11] = target: T3, High affinity choline transporter 1 (Homo sapiens, UniProt Q9GZV3); experiment: human choline transporter blockers, potency – cell-based, 5-point CRC, membrane potential dye, dose response (AID 504840); assay type: functional
T3 sequence (Q9GZV3 whole entry): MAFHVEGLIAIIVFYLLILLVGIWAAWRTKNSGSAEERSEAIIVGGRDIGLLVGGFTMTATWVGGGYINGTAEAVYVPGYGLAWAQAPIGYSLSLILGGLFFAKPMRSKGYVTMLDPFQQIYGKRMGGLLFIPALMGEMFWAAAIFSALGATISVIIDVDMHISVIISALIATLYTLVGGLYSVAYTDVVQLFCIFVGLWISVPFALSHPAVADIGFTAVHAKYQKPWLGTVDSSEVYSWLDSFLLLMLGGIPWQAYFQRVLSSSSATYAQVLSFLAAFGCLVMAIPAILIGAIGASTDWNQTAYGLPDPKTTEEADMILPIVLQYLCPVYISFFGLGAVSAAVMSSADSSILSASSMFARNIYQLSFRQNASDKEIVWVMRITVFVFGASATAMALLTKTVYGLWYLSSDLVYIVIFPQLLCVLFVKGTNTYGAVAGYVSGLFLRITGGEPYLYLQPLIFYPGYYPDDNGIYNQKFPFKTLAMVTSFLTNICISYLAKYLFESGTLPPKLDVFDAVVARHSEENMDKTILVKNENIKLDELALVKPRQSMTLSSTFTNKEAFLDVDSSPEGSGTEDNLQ

[12] = test system: Vero; experiment: cells; assay type: functional, cell-based; conditions: Chlorocebus sabaeus
[13] = test system: Vero; experiment: cells; assay type: functional; conditions: Chlorocebus sabaeus
[14] = target: Albumin (Bos taurus, UniProt P02769); experiment: Counterscreen for inhibitors of T-cell receptor (TCR)-CD3 interaction: Fluorescence-based biochemical high throughput dose response assay to identify inhibitors of T-cell receptor (TCR)-CD3 interaction using a TAMRA-labeled BSA probe.; assay type: functional
Sequence of Albumin (P02769 whole entry): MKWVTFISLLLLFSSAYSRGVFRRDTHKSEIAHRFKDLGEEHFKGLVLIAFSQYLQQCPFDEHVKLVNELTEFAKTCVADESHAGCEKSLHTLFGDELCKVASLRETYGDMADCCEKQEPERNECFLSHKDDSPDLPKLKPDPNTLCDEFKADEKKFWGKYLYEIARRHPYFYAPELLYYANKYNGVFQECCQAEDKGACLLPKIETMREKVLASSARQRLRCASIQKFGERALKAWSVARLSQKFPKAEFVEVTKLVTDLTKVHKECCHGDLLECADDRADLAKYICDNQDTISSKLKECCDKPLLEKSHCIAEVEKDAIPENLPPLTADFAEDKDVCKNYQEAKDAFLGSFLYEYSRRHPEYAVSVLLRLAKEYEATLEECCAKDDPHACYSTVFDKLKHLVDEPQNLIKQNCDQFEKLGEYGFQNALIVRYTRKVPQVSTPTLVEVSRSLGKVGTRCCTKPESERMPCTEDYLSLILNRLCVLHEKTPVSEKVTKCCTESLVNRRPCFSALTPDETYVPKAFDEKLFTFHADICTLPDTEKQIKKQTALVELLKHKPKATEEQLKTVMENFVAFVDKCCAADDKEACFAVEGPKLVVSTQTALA

[15] = microbe, parasite or virus in culture; assay type: functional; conditions: Mycobacterium tuberculosis
[16] = target: Melanocortin receptor 4 (Homo sapiens, UniProt P32245); assay type: functional, cell-based;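 further: Cell-based assay with luminescence read-out, confirmatory dose-response testing for agonist activity of biased ligands at MC4R; human U2OS cells with tagged receptor and beta-arrestin; potency of agonists that increase receptor coupling to beta-arrestin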
Sequence of Melanocortin receptor 4 (P32245 whole entry): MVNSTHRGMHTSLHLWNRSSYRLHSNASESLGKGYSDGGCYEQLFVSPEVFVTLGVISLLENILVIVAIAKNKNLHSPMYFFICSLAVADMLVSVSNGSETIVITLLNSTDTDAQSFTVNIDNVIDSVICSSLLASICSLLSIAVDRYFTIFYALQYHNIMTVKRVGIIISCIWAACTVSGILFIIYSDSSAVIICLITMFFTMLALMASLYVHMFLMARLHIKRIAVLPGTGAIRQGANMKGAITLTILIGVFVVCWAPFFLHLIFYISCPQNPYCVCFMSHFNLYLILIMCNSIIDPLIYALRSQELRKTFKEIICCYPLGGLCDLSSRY

[17] = target: T4, Low molecular weight phosphotyrosine protein phosphatase (Homo sapiens, UniProt P24666); assay type: functional; conditions: read-out: IC50_Mean
T4 sequence (P24666 whole entry): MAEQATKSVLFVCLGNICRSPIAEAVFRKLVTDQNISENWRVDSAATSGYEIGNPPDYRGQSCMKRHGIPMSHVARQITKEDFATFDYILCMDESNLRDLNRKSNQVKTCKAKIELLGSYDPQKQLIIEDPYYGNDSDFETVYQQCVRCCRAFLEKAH

[18] = target: T4, Low molecular weight phosphotyrosine protein phosphatase; assay type: functional; conditions: read-out: IC50_Mean; remark: listed apart in the source
[19] = Trypanosoma cruzi growth suppression in host cells – NIH3T3 host cells, beta-gal luminescence, confirmation (AID 2044); assay type: functional, cell-based;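 further: intracellular parasites grown in NIH/3T3 mouse fibroblasts as host cells; luminescent beta-galactosidase reporter signal from transgenic T. cruzi replicating inside host cells; inhibitors lower the luminescence signal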
[20] = NIH3T3 cell viability loss – ATP luminescence, mouse fibroblasts, counter-screen, dose response (AID 2010); assay type: functional, cell-based;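 further: cells exposed to compound for about 90 hours before reading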
[21] = cells
[22] = target: Large T antigen (Simian virus 40, UniProt P03070); assay type: functional, Betapolyomavirus macacae;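 further: Confirmatory-stage PubChem screen for compounds that inhibit SV40 T antigen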
Sequence of Large T antigen (P03070 whole entry): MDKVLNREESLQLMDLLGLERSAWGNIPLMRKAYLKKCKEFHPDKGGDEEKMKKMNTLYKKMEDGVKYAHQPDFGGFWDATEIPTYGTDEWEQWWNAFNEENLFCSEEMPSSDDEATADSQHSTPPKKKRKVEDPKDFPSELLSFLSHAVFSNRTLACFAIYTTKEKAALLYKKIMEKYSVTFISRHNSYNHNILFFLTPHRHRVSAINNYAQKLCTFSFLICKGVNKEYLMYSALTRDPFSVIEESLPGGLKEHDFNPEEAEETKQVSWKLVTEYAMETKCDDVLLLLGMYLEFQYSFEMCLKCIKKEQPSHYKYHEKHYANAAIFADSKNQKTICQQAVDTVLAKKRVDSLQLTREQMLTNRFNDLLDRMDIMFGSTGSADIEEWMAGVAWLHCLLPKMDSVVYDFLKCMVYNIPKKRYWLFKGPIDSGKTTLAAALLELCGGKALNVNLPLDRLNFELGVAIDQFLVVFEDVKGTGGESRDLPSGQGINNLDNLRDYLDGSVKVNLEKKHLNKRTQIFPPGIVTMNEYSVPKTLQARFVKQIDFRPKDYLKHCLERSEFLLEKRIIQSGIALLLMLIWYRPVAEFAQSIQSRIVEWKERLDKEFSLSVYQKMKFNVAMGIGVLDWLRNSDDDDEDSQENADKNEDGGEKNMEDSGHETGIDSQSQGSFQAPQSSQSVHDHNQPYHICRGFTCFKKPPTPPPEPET

[23] = target: Genome polyprotein (dengue virus type 2, UniProt P29990); experiment: flavivirus cap methylation enzyme inhibition – biochemical, confirmation dose response, primary screen (AID 588689); assay type: functional
Sequence of Genome polyprotein (P29990 2492-3391 limits assumed): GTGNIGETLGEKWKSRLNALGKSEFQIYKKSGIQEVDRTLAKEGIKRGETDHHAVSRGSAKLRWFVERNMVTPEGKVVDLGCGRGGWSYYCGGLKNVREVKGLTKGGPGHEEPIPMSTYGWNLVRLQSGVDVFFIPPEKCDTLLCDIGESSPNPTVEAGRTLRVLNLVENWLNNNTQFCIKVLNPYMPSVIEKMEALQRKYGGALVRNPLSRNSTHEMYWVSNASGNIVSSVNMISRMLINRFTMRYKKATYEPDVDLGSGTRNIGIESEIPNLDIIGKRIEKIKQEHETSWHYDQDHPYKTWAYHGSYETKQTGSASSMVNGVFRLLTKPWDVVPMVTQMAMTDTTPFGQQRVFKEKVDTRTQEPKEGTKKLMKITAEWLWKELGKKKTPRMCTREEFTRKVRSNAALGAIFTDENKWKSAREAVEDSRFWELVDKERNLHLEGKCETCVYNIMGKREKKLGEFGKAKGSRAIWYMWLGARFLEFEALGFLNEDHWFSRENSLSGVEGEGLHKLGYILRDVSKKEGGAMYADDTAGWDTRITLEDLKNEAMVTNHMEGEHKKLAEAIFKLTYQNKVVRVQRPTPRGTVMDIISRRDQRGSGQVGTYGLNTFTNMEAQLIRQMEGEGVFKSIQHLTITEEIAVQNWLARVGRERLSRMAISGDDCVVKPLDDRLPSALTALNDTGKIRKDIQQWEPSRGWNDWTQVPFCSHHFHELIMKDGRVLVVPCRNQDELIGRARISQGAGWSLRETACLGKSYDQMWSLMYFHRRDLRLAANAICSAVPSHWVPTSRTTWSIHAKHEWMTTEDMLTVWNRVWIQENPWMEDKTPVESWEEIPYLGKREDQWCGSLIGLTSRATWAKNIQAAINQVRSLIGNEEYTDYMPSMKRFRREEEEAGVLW

[24] = target: T5, Rac GTPase-activating protein 1 (Homo sapiens, UniProt Q9H0H5); experiment: blockers of MgcRacGAP-driven Rac1 GTP hydrolysis – biochemical, ADP Hunter fluorescence, primary and confirmatory, confirmation (AID 624330); assay type: functional
T5 sequence (Q9H0H5 whole entry): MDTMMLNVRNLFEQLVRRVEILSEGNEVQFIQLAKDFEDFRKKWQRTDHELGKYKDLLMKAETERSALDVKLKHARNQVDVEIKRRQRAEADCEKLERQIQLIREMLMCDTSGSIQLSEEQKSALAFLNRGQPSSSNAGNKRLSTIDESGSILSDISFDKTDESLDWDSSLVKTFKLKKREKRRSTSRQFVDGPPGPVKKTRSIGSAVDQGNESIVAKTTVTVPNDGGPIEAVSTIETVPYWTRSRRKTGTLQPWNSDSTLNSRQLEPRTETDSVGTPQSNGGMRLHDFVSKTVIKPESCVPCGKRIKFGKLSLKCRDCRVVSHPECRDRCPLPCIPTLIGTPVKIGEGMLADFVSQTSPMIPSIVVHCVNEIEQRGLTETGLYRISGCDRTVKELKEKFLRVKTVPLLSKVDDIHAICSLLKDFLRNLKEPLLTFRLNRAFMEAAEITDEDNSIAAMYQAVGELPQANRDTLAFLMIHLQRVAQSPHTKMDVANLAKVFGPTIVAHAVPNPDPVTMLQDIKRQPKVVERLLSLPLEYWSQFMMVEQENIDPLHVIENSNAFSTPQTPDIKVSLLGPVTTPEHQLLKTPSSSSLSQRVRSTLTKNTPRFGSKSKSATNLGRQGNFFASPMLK

[25] = target: T6, Mannose-6-phosphate isomerase (Homo sapiens, UniProt P34949); experiment: MPI inhibition at elevated mannose 6-phosphate – biochemical, fluorescence intensity, high mannose 6-phosphate, primary screen (AID 1220)
T6 sequence (P34949 whole entry): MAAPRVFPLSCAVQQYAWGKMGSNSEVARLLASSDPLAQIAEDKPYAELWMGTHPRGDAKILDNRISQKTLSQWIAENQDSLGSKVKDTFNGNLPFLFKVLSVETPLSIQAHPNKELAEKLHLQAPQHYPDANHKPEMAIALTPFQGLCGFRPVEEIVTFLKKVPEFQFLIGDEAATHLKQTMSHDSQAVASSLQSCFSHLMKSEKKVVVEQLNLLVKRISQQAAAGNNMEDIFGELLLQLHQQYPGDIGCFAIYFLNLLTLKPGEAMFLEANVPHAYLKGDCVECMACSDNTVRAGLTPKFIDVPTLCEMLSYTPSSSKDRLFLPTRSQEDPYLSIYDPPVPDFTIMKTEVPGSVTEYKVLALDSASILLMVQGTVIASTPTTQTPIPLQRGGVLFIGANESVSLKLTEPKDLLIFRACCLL

[26] = T. cruzi growth inhibition in host cells, dose response, cell-based, plate reader, dry powder, set 2 (AID 652275); assay type: functional

Cc1ccc(N2C(=O)NC(=O)/C(=C\C=C\c3ccco3)C2=O)cc1
AC50 [1]: 2.98 µM (active) | AC50 [2]: > 20 µM (inactive) | EC50 [3]: > 59.6 µM (inactive) | EC50 [4]: > 59.6 µM (inactive)

O=C1NC(=O)/C(=C\c2ccc(Oc3cnccn3)cc2)S1
AC50 [5]: 4.71 µM (active)

Cc1ccc(-c2nn[nH]n2)cc1Cl
AC50 [5]: 9.99 µM (active)

O=C(O)c1cccc(N2C(=O)c3ccc4c5c(ccc(c35)C2=O)C(=O)N(c2cccc(C(=O)O)c2)C4=O)c1
IC50 [6]: 13.7 µM (active) | IC50 [7]: 16.5 µM (active)

CCOC(=O)/C(C#N)=C\c1c(OCC)n(CC)c2ccccc12
CC50 [8]: 100 µM (active)

CC(NC(=O)CN(c1cccc(C(F)(F)F)c1)S(=O)(=O)c1ccc(Cl)c([N+](=O)[O-])c1)c1ccccc1 (stereo not given)
IC50 [9]: 15.6 µM (inactive)

Cc1ccc(Oc2ccc(NC(=O)Cn3ccsc3=N)cc2)cc1
CC50 [10]: 15.7 µM (active) | IC50 [11]: 13.2 µM (active) | IC50 [12]: > 25 µM (active) | CC50 [13]: 19.1 µM (active)

Cc1n[nH]c(S/C(=C/c2ccc(OCc3ccc(C(=O)O)cc3)cc2)C(=O)O)n1
IC50 [14]: > 94.1 µM (inactive)

Cc1ccc(CN2CCC(c3cc(-c4ccc(Cl)cc4)[nH]n3)CC2)cc1
CC50 [15]: > 40 µM (active) | EC50 [16]: > 89.2 µM (inactive)

Fc1ccccc1-c1nc(NCCCN2CCOCC2)c2ccccc2n1
IC50 [17]: 33 µM (inactive) | IC50 [18]: 13 µM (active)

O=c1c2ccccc2[nH]c(=S)n1CCCN1CCN(c2ccccc2)CC1
CC50 [10]: > 12.5 µM (active) | EC50 [19]: < 0.1 µM (active) | EC50 [20]: > 60 µM (not active) | IC50 [12]: > 25 µM (active) | EC50 [21]: 0.169 µM (active)

CC1=NN(c2ccc(Cl)c(C(=O)O)c2)C(=O)/C1=C/c1ccc(-c2ccccc2[N+](=O)[O-])o1
IC50 [22]: 15.7 µM (active) | IC50 [23]: 9.5 µM (active) | CC50 [8]: 100 µM (active) | IC50 [24]: 28.7 µM (active)

O=c1c2ccccc2[nH]c(=S)n1CCCN1CCN(c2ccccc2F)CC1
IC50 [12]: > 25 µM (active)

O=C1NC(=O)N(Cc2ccco2)C(=O)/C1=C/NNC(=O)c1ccccc1
IC50 [14]: > 94.2 µM (inactive)

CN(C)C=O.Cc1cc(-c2ccco2)c(C#N)c2nc3ccccc3n12
IC50 [25]: > 50 µM (not active) | IC50 [17]: > 80 µM (inactive) | IC50 [18]: 37.5 µM (inactive)

CC(C)(C)[S@@+]([O-])N1Cc2cc(C(=O)NCc3ccc4c(c3)OCO4)nc(-c3cccc(-c4ccccc4)c3)c2[C@H]1CCO
AC50 [26]: 0.309 µM (active)

O=C(Cc1ccccn1)N1CCCCN2[C@@H](CO)[C@H](c3ccc(-c4ccc(F)cc4)cc3)[C@@H]2C1
AC50 [26]: 1.43 µM (active)
